The values below are quoted from earlier work in patent US10004757B1, “Oral supplement” (Nutri Vida, LLC, priority 2017, dated 2018).

The conditions of the data set: taken over the daily recommended amount.

Take `O=C(O)c1cccnc1` [Niacin, nicotinic acid]: the decrease in triglycerides is 30%.
